# In paper PMC7391726, “Fatty acid mimetic PBI-4547 restores metabolic homeostasis via GPR84 in mice with non-alcoholic fatty liver disease” (Scientific Reports, 2020):
# How the values were obtained:
# HepG2 hepatocytes = test: Mitochondrial respiration (Seahorse OCR) in HepG2 hepatocytes; assay type: cell-based; settings: HepG2, 24 h treatment
# Method: Moreover, hepatic expression of several genes involved in glucose metabolism including Pklr (pyruvate kinase L/R), G6pc (glucose-6-phosphatase, catalytic) and Slc2a2 (Glut2) was normalized by PBI-4547 (Fig. 4B). […] To test this hypothesis, mitochondrial respiration in HepG2 hepatocytes was measured (Fig. 4C). […] However, it did decrease maximal respiration and ATP production, in agreement with the metabolomics results.
# Figure 4 Effects of PBI-4547 on glucose and FA metabolism in liver. (A) Relative gene expression levels of glucose and FA-related metabolism in liver from STD, HFD and HFD + PBI-4547 mice. Data are presented as geometric mean ± SEM (n ≥ 6 per group, one-way ANOVA with Dunnett’s multicomparison test vs HFD group). (B) 1H-NMR metabolic profiling in liver tissues. (C) Oxygen Consumption Rate (OCR) and Extracellular Acidifcation Rate (ECAR) in HepG2 hepatocytes. Measurements of basal respiration, maximal respiration, ATP production and proton leak in HepG2 hepatocytes treated or not with PBI-4547. (D) Oxidation rate of ^14C-palmitate in HepG2 hepatocytes treated or not with PBI-4547. Data are presented as mean ± SEM (n = 3, Student t test Ctrl vs PBI-4547). See also Fig. S2.
# Oxygen consumption rate (OCR) and extracellular acidification rate (ECAR) were measured with a Seahorse XF96 as per manufacturer’s protocol (Agilent). Briefly, 8 × 10^4 HepG2 cells were plated onto Seahorse XF96 96-well plates for 24 h prior to stimulation. The next day, cells were treated with PBI-4547 or with vehicle control for 24 h. Cells were subjected to a mitochondrial stress test with serial injections of Oligomycin (1 μM; ATPase inhibitor), FCCP (1 μM; mitochondrial uncoupler) and Rotenenone/Antimycin A (1 μM; complex I/III inhibitor).
# PPARδ = target: T1, PPARδ (Homo sapiens, UniProt Q03181); test: LanthaScreen TR-FRET competitive binding assay, PPARδ LBD; settings: Cheng-Prusoff; read-out: Ki inhibition constant, PPARδ LBD
# T1 construct: glutathione S-transferase (GST)-tagged human PPAR-LBD; purchased Fisher Scientific
# T1 sequence (Q03181 211-439 limits assumed): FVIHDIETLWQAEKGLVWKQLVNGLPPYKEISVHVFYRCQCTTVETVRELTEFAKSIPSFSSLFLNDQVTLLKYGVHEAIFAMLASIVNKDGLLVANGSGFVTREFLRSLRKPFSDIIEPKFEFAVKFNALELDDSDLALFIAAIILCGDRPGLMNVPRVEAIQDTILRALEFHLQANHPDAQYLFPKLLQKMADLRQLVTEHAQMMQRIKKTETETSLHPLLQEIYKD
# Source text: (§1) The peroxisome proliferator-activated receptors (PPARs), PPARα, PPARδ, and PPARγ are ligand-dependent transcription factors regulated by FAs, including MCFAs, which control expression of several key metabolism-associated genes. We thus characterized the binding and transcriptional activity of PBI-4547 to these receptors. A LanthaScreen TR-FRET competitive binding assay was used to determine the binding affinity of PBI-4547 in comparison to the full control agonists GW7647 (PPARα), GW0742 (PPARδ), and rosiglitazone (PPARγ).
# (§2) The LanthaScreen time-resolved fluorescence resonance energy transfer (TR-FRET) PPARα, PPARδ and PPARγ competitive binding assay (Fisher Scientific) was performed according to the manufacturer’s protocol. […] The FRET signal was measured using an Infinite M1000 microplate reader by excitation at 332 nm and emission at 520 nm for fluorescein and 490 nm for terbium. Competitive ligand binding to PPAR is detected by a test compound’s ability to displace the Fluormone pan-PPAR Green from the LBD, which results in a decrease of the 520 nm/490 nm TR-FRET ratio. The inhibition constant (Ki) of the competitor ligand was calculated by applying the Cheng-Prusoff equation.
# PPARα = target: T2, PPARα (Homo sapiens, UniProt Q07869); test: LanthaScreen TR-FRET competitive binding assay, PPARα LBD; settings: Cheng-Prusoff; read-out: Ki inhibition constant, PPARα LBD
# T2 construct: glutathione S-transferase (GST)-tagged human PPAR-LBD; purchased Fisher Scientific
# T2 sequence (Q07869 239-466 limits assumed): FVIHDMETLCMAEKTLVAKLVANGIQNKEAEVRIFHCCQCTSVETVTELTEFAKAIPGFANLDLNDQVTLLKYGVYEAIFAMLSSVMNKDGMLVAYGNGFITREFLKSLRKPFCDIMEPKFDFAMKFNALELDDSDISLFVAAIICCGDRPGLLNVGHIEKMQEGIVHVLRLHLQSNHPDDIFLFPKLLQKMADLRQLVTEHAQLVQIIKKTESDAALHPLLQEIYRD
# Source text: as §1, §2
structure (smiles),measurement,setting,value
"CCCCCc1cc(CCCCC)cc(CC(=O)[O-])c1.[Na+] [PBI-4547, 2-[3,5-dipentylphenyl]acetate sodium salt]",ATP production,HepG2 hepatocytes,decrease
same,basal oxygen consumption rate (OCR),HepG2 hepatocytes,did not affect
same,maximal respiration,HepG2 hepatocytes,decrease
same,mitochondrial proton leak,HepG2 hepatocytes,significantly increased
same,Ki,PPARδ,3160 nM
same,Ki,PPARα,489 nM
